Test results as given in patent US20220313678A1 (priority 2021, published 2022).
Where two headings read alike, the source gives them in different places.

What was measured:
[1] = free base (non-protonated); cited from earlier work
[2] = 1:1 v:v, about 25° C., about 24 hours
Method: Each of Samples 1-8 is prepared by and measured according to the following method. Liquid nicotine is added at the target nicotine concentration to a vessel containing an oil phase. The oil phase containing nicotine is mixed with an aqueous phase at a one-to-one volume ratio (v:v) using an orbital shaker at about 100 rotations per minute (rpm) for about 5 minutes to prepare a nicotine oil: aqueous phase mix. The nicotine oil: aqueous phase mix is allowed to sit at room temperature (about 25° C.) for about 24 hours. A concentration of nicotine in each of the oil phase and the nicotine phase is measured using a liquid chromatography method. A partition coefficient, which is a ratio concentrations of a compound (i.e., nicotine) in two immiscible solvents (i.e., an oil phase and an aqueous phase) at equilibrium, is calculated for each sample. The partition coefficient is a comparison of the solubilities of the nicotine in the two liquid phases.
Samples 1-6 include MCT oil (CAS No. 73398-61-5) as an oil phase. Sample 7 includes triacetin oil as an oil phase. Sample 8 includes triolein oil as an oil phase. Sample 1 includes deionized (DI) water as an aqueous phase. Sample 2 includes basified DI water having a pH of 7.4 as an aqueous phase. Sample 3 includes artificial saliva having a pH of 6.8 as an aqueous phase. Artificial saliva simulates mucus conditions. […]

SMILES: CN1CCCC1c1cccnc1 (stereo not drawn) [nicotine, 3-(1-methyl-2-pyrrolidinyl) pyridine]
- pKa value [1]: about 8
- partition coefficient (oil phase : aqueous phase) ([2]; Samples 1-4: MCT oil vs DI water, basified DI water pH 7.4, artificial saliva pH 6.8, acidified DI water pH 2): greater than 1
- partition coefficient (oil phase : aqueous phase) ([2]; Samples 5-8: MCT, triacetin or triolein oil vs 1M acetic acid pH adjuster pH 2): less than 1
